Assays:
[1] = system: MMP-13; design: method as in PMID 23873724; conditions: previous work, virtual screening hits; cited from earlier work
[2] = system: MMP-2; design: method as in PMID 23873724; conditions: previous work, virtual screening hits; cited from earlier work
[3] = system: MMP-8; design: method as in PMID 23873724; conditions: previous work, virtual screening hits; cited from earlier work
[4] = biological target: T1, catalytic domain of MMP-2 (Homo sapiens, UniProt P08253); experiment: MMP-2 enzyme inhibition assay (fluorogenic substrate); type: biochemical; conditions: for IC50: mean ± SEM of at least three independent measurements in triplicate
T1 construct: The catalytic domains of MMP-2, MMP-8 and MMP-13 were purchased from Enzo Life Sciences; purchased Enzo Life Sciences (Lörrach, Germany)
Description: (§1) The synthesized compounds were submitted to MMP inhibition assays. A dose/response preliminary screening was performed at 100 µM by registering the residual enzyme activity on MMP-2, MMP-8 and MMP-13 (Figure 4). Compounds showing a percentage of inhibition higher than 50% were submitted to IC50 calculation.
(§2) The catalytic domains of MMP-2, MMP-8 and MMP-13 were purchased from Enzo Life Sciences (Lörrach, Germany). The assays were performed in triplicate in 96-well white microtiter plates (Corning, NBS; Corning, NY, USA). For assay measurements, inhibitor stock solutions (DMSO, 10 mM) were diluted to six different concentrations (1 nM–100 µM) in fluorometric assay buffer (50 mM Tris·HCl pH 7.5, 200 mM NaCl, 1 mM CaCl2, 1 µM ZnCl2, 0.05% Brij-35 and 1% DMSO). Enzyme and inhibitor solutions were incubated in the assay buffer for 15 min at room temperature before the addition of the fluorogenic substrate solution (OmniMMP® = Mca-Pro-Leu-Gly-Leu-Dpa-Ala-Arg-NH2, Enzo Life Sciences, 2.5 µM final concentration or OmniMMP®RED = TQ3-GABA-Pro-Cha-Abu-Smc-His-Ala-Dab(6’-TAMRA)-Ala-Lys-NH2, (TAMRA: tetramethylrhodamine) Enzo Life Sciences, 1 µM final concentration). After further incubation for 2–4 h at 37 °C, fluorescence was measured (λex = 340 nm, λem = 405 nm or λex = 545 nm, λem = 572 nm) using a Perkin-Elmer Victor V3 plate reader (Waltham, MA, USA). Control wells lacked inhibitor. The MMP inhibition activity was expressed in relative fluorescence units (RFU). Percent inhibition was calculated from control reactions without inhibitor; IC50 values were determined using GraphPad Prism version 5.0f and are expressed as the mean ± SEM of at least three independent measurements in triplicate.

[5] = biological target: T2, catalytic domain of MMP-8 (Homo sapiens, UniProt P22894); experiment: MMP-8 enzyme inhibition assay (fluorogenic substrate); type: biochemical; conditions: mean ± SEM of at least three independent measurements in triplicate
T2 construct: The catalytic domains of MMP-2, MMP-8 and MMP-13 were purchased from Enzo Life Sciences; purchased Enzo Life Sciences (Lörrach, Germany)
Description: as §1, §2

[6] = biological target: T3, catalytic domain of MMP-13 (Homo sapiens, UniProt P45452); experiment: MMP-13 enzyme inhibition assay (fluorogenic substrate); type: biochemical; conditions: mean ± SEM of at least three independent measurements in triplicate
T3 construct: The catalytic domains of MMP-2, MMP-8 and MMP-13 were purchased from Enzo Life Sciences; purchased Enzo Life Sciences (Lörrach, Germany)
Description: as §1, §2

T2 sequence (P22894 100-262 limits assumed): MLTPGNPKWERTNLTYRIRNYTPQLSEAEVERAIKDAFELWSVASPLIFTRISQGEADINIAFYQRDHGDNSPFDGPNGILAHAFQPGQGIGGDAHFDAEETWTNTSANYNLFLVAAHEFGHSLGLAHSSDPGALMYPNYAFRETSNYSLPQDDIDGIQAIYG
T1 sequence (P08253 110-446 limits assumed): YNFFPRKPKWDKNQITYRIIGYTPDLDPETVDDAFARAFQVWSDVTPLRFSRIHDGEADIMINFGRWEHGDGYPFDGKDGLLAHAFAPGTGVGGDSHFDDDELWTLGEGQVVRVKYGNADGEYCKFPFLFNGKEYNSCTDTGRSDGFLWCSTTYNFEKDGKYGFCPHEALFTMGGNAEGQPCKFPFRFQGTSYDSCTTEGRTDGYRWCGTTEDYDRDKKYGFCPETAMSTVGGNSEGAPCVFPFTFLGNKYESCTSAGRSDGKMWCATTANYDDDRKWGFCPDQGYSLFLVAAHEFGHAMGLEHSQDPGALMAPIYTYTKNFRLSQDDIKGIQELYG

melting point	Compound	further results
154 to 156 °C	O=C(NCc1ccccc1)Nc1cccnc1 [Compound 1q]	
186 to 188 °C	O=C(Cc1ccccc1)Nc1cccc2cnccc12 [Compound 2a]	
235 to 237 °C	O=C(NCc1ccccc1)Nc1cncc2ccccc12 [Compound 1g]	IC50 [4]: 74 ± 3 µM; IC50 [5]: > 100 µM; IC50 [6]: 73 ± 11 µM
208 to 210 °C	O=C(NCc1ccccc1)Nc1ccc2ccccc2c1 [Compound 1o]	
116 to 118 °C	CC(NC(=O)NCc1ccccc1)c1ccccc1 (stereo not drawn) [Compound 1w]	
206 to 208 °C	O=C(NCc1ccccc1)Nc1cccc2ccncc12 [Compound 1i]	MMP inhibition activity (in words) ([4]; preliminary screening at 100 µM, isoform not given, MMP-2): inactive
198 to 199 °C	O=C(NCc1ccccc1)Nc1ccc2cn[nH]c2c1 [Compound 1m]	
117 to 119 °C	O=C(NCc1ccc(NS(=O)(=O)c2ccccc2)cc1)Nc1cccc2cnccc12 [Compound 5]	IC50 [4]: 54 ± 7 µM; IC50 [5]: 88 ± 5 µM; IC50 [6]: 55 ± 7 µM
124 to 126 °C	O=C(NCc1ccccc1)NN1CCCC1 [Compound 1z]	

The remaining lines, values behind:

Compound	melting point	further results
O=C(NCc1ccccc1)Nc1nccc2ccccc12 [Compound 1e]	164 to 165 °C	
O=C(NCc1ccco1)Nc1c[nH]c2ccc(F)cc2c1=O [Hit 2]		IC50 [1]: 5 µM; IC50 [2]: 15 µM; IC50 [3]: 105 µM
COc1cccc(CNC(=O)NCc2ccccc2)c1OC [Compound 1t]	149 °C	
O=C(CCc1ccccc1)Nc1cccc2cnccc12 [Compound 2b]	133 to 135 °C	
O=C(NCCc1ccccc1)c1cccc2cnccc12 [Compound 2d]	120 to 121 °C	
COc1ccc(CNC(=O)NCc2ccccc2)cc1OC [Compound 1u]	127 °C	
O=C(NCc1ccccc1)Nc1ccc2[nH]ncc2c1 [Compound 1l]		IC50 [4]: 86 ± 2 µM; IC50 [5]: > 100 µM; IC50 [6]: 98 ± 2 µM
O=S(=O)(Nc1ccc2cnccc2c1)c1ccccc1 [Compound 2e]	228 to 230 °C	
O=C(NCc1ccccc1)Nc1ccc(O)cc1 [Compound 1s]	177 to 179 °C	
O=C(NCc1ccccc1)Nc1cccc2ncccc12 [Compound 1c]	251 °C (dec.)	IC50 [4]: 55 ± 1 µM; IC50 [5]: > 100 µM; IC50 [6]: 58 ± 1 µM
O=C(NCc1ccccc1)Nc1cccc2ccccc12 [Compound 1n]	196 to 197 °C	
O=C(NCc1ccccc1)Nc1cccc2cnccc12 [Compound 1h]	248 to 249 °C	IC50 [4]: 15 ± 4 µM; IC50 [5]: > 100 µM; IC50 [6]: 14 ± 4 µM
O=C(NCc1ccc(NC(=O)c2ccccc2)cc1)Nc1cccc2cnccc12 [Compound 7]	200 to 202 °C	IC50 [4]: 7.4 ± 0.8 µM; IC50 [5]: 48.5 ± 1.6 µM; IC50 [6]: 6.6 ± 0.4 µM
O=C(NCc1ccccc1)c1cccc2cnccc12 [Compound 2c]	182 to 183 °C	
O=C(NCc1ccccc1)Nc1ccnc2ccccc12 [Compound 1b]	167 to 169 °C	
O=C(NCc1ccccc1)Nc1cc2ccccc2cn1 [Compound 1f]	168 to 170 °C	
O=C(NCc1ccccc1)Nc1ccc2[nH]ccc2c1 [Compound 1j]	197 to 198 °C	
O=C(NCc1ccccc1)Nc1ccccn1 [Compound 1p]	148 to 150 °C	
O=C(NCc1ccccc1)Nc1ccc2cc[nH]c2c1 [Compound 1k]	211 to 213 °C	
O=C(NCc1ccco1)Nc1c[nH]c2cccnc2c1=O [Hit 1]		IC50 [1]: 36 µM; IC50 [2]: 5 µM; IC50 [3]: 75 µM
